Data on six compounds can be found in patent US10829478B2, “5-[3-[piperazin-1-yl]-3-oxo-propyl]-imidazolidine-2,4-dione derivatives as ADAMTS 4 and 5 inhibitors for treating e.g. osteoarthritis” (Galapagos NV, priority 2016, dated 2020).

Experiment [1] has as its target T1, human ADAMTS4 (Homo sapiens (Human), UniProt O75173). The experiment in a line: hADAMTS-4 TBIS-1 cleavage assay, Protocol 1. It is filed as biochemical. The note with it: 60 min at room temperature, read-out: ADAMTS4 potency IC50.
Experimental: (§2) The reaction is initiated by adding to the assay plate TBIS-1 (10 μL, 4.5 μM, Anaspec) in the same buffer.
Finally, the fluorescence is read on the Envision (Perkin Elmer) after an incubation of 60 min at room temperature (Excitation 485 nm, emission 535).
The target of experiment [2] is human ADAMTS6 (Homo sapiens (Human), UniProt Q9UKP5). The experiment in a line: hADAMTS-6 fluorescent based protease assay (520 MMP FRET substrate XII). The experiment is classed as biochemical. The note with it: 37° C. for 2 h; read-out: hADAMTS-6 potency IC50. The procedure, abridged:
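ADAMTS6 (0.73 nM final) in 25 mM Tris pH 8.0, 0.05% CHAPS, 2.5 mM CaCl2 with compound dilution series (top 20 μM, 1/5 steps). Reaction started with 520 MMP FRET Substrate XII, incubated 2 h at 37 °C. Substrate cleavage read by fluorescence ex485/em530; IC50 determined.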

Experiment [3] concerns the target human TACE (Homo sapiens (Human), UniProt P78536). Description: biochemical.
Experimental: Finally, the fluorescence is read on the Envision (Perkin Elmer) after an incubation of 75 min at room temperature (Excitation 485 nm, Emission 530).
In experiment [4] the target is T2, human ADAMTS-5 (Homo sapiens (Human), UniProt Q9UNA0). The experiment in a line: hADAMTS-5 TBIS-1 cleavage assay, Protocol 2. It is filed as biochemical. The settings on record: 45 min at 37° C., read-out: ADAMTS5 potency IC50.
T2 sequence (Q9UNA0 262-930): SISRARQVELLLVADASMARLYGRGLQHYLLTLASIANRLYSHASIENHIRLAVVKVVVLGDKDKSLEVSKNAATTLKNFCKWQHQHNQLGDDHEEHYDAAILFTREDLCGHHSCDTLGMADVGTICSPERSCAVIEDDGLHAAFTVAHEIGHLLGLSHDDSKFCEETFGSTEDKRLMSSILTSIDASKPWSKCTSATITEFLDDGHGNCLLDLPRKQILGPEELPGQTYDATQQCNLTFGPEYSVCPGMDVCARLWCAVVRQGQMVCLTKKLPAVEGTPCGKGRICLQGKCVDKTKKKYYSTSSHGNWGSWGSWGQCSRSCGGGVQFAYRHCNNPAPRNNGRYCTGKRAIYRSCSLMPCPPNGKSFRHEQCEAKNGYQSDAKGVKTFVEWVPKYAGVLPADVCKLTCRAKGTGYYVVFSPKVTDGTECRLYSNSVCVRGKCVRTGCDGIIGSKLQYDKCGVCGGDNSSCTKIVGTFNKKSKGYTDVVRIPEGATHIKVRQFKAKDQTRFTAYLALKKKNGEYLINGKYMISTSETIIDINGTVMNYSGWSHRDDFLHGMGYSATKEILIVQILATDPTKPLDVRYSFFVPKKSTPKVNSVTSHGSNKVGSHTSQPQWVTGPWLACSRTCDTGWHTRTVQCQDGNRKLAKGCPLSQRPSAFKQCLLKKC
Experiment [5] addresses rnADAMTS-5 (1-564-6H) (Rattus norvegicus (Rat), UniProt Q6TY19). The experiment in a line: Rat ADAMTS-5 TBIS-1 cleavage assay. The experiment is classed as biochemical. The note with it: 120 min at 37° C.; read-out: Rat ADAMTS-5 potency IC50.
In experiment [6] the target is T3, human MMP13 (Homo sapiens (Human), UniProt P45452). The experiment in a line: hMMP13 assay, Protocol 1 (390 MMP FRET Substrate I, Chemicon enzyme). It is filed as biochemical. The note with it: Protocol 1, human MMP13 (Chemicon), read-out: hMMP-13 potency IC50. On the procedure:
(§1) Human MMP13 is preactivated by incubated the enzyme in the same buffer complemented with 1 mM freshly prepared p-Aminophenylmercuric acetate (AMPA) for 1 h at 37° C.

Experiment [7] concerns the target T2, human ADAMTS-5. The experiment in a line: hADAMTS-5 TBIS-1 cleavage assay, Protocol 3. The settings on record: 90 min at 37° C., read-out: hADAMTS-5 potency IC50. It is filed as biochemical.
Experimental: as §2
Finally, the fluorescence is read on the Envision (Perkin Elmer) after an incubation of 90 min at 37° C. (Excitation 485 nm, emission 530).
The target of experiment [8] is T1, human ADAMTS4. The experiment in a line: hADAMTS-4 TBIS-1 cleavage assay, Protocol 2. The experiment is classed as biochemical.
Experiment [9] addresses human MMP14 (Homo sapiens (Human), UniProt P50281). The experiment in a line: hMMP14 assay (390 MMP FRET Substrate I). The experiment is classed as biochemical. The note with it: human MMP14 (Biomol), read-out: hMMP-14 potency IC50.
Experimental: The basis for the assay is the cleavage of the substrate 390 MMP FRET Substrate I (Anaspec Cat #AS-27076) by human MMP14 (Biomol, Cat #SE-259).
The reaction is initiated by adding to the assay plate 390 MMP FRET Substrate I (10 μL, 2.5 μM) in the same buffer.
Finally, the fluorescence is read on the Envision (Perkin Elmer) after an incubation of 60 min at room temperature (Excitation 485 nm, Emission 530).
For experiment [10], the target named is T3, human MMP13. The experiment in a line: hMMP13 assay, Protocol 2 (390 MMP FRET Substrate I, Enzo enzyme). The note with it: Protocol 2, human MMP13 (Enzo Life Sciences), read-out: hMMP-13 potency IC50. The experiment is classed as biochemical. The method, then: as §1
[11] abbreviates: Protocol 2, 180 min at 37° C., read-out: ADAMTS4 potency IC50.

Structures are written as SMILES.

As a reminder, the IC50 is the concentration needed to halve the response being measured.

Sequence of human TACE (P78536 215-671): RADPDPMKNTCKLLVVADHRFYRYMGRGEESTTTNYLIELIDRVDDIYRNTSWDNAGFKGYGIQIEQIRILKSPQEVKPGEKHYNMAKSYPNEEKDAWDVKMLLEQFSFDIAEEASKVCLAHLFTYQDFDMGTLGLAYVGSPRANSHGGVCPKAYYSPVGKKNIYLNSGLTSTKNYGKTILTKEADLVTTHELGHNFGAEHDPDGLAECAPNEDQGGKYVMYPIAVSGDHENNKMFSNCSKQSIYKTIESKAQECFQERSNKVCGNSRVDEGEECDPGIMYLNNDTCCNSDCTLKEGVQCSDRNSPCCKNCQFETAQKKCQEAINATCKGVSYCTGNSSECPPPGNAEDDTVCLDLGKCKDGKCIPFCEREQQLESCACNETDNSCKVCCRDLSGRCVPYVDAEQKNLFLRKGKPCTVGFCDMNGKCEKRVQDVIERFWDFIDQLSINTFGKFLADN
T1 sequence (O75173 213-837): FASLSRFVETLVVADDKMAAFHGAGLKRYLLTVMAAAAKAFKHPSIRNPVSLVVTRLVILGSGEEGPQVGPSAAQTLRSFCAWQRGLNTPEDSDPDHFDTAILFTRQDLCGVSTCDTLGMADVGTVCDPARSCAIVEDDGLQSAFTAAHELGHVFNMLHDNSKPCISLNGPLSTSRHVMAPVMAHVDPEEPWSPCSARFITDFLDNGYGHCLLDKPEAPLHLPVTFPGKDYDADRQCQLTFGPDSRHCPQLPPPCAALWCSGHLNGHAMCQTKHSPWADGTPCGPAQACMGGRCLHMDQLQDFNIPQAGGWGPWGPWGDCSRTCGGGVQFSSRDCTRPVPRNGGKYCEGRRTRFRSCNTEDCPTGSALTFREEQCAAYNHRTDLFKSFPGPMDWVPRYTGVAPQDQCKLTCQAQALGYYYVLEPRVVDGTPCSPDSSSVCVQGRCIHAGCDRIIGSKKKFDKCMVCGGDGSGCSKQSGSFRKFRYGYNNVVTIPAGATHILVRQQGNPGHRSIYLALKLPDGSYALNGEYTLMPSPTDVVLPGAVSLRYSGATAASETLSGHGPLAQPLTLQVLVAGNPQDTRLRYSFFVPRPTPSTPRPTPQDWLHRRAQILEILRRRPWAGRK
Sequence of rnADAMTS-5 (1-564-6H) (Q6TY19 entry or part of it): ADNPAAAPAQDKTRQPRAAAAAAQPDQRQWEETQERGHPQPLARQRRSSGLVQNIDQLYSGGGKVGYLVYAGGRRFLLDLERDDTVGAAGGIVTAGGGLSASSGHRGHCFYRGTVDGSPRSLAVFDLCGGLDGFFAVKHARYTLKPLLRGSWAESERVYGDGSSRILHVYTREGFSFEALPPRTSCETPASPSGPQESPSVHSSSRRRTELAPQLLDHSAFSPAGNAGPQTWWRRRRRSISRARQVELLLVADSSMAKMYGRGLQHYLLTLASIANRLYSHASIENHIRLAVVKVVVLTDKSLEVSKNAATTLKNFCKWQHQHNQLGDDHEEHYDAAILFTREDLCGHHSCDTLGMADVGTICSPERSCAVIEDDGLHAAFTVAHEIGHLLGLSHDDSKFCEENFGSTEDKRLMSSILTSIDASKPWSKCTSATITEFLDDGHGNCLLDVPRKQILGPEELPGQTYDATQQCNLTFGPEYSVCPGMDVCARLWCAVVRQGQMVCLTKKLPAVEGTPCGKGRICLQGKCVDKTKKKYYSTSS
Sequence of human ADAMTS6 (Q9UKP5 other isoform, or with tags, fused parts or gaps): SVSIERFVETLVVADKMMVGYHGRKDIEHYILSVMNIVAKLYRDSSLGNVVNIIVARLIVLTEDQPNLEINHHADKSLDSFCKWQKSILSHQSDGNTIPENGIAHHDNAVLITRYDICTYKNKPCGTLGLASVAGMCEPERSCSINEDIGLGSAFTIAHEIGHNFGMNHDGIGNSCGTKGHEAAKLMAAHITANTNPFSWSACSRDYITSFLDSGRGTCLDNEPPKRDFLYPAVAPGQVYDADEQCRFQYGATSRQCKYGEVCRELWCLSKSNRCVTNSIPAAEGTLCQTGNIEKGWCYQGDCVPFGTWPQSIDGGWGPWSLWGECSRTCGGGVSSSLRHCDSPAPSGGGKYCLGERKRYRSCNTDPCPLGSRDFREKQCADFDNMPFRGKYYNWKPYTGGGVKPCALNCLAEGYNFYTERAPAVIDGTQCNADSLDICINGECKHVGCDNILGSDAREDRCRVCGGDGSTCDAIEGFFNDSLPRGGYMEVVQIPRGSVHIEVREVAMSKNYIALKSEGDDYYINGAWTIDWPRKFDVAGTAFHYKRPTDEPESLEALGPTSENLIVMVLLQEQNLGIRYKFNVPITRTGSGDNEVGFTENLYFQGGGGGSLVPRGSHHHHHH

Turning to `COc1cccc(N2CCN(C(=O)CCC3(C)NC(=O)NC3=O)CC2)c1` (stereo not drawn) [Cpd 1, 5-[3-[4-(3-methoxyphenyl)piperazin-1-yl]-3-oxo-propyl]-5-methyl-imidazolidine-2,4-dione], the IC50 in experiment [1], in [2], in [3] and in experiment [4] was more than 100 nM each time.

In the case of `COc1cccc(N2CCN(C(=O)CCC3(C4CC4)NC(=O)NC3=O)CC2)c1` (stereo not drawn) [Cpd 2, 5-cyclopropyl-5-[3-[4-(3-methoxyphenyl)piperazin-1-yl]-3-oxo-propyl]imidazolidine-2,4-dione], the IC50 in experiment [1] was 25 to 50 nM; in [2], more than 100 nM; in [5], more than 100 nM; in experiment [3], more than 100 nM; in experiment [4], more than 100 nM.

Regarding `COc1cc(N2CCN(C(=O)CCC3(C)NC(=O)NC3=O)CC2)cc(F)c1F` (stereo not drawn) [Cpd 14, 5-[3-[4-(3,4-difluoro-5-methoxy-phenyl)piperazin-1-yl]-3-oxo-propyl]-5-methyl-imidazolidine-2,4-dione], the IC50 is more than 100 nM in experiment [6]; 25 to 50 nM in experiment [2]; more than 100 nM in experiment [5]; more than 100 nM in [3]; more than 100 nM in experiment [7]; more than 100 nM in experiment [4]. In [8] (setting [11]), the half-inhibitory concentration (IC50) is more than 100 nM.

Take `COc1cc(F)cc(N2CCN(C(=O)CCC3(C4CC4)NC(=O)NC3=O)CC2)c1` (stereo not drawn) [Cpd 15, 5-cyclopropyl-5-[3-[4-(3-fluoro-5-methoxy-phenyl)piperazin-1-yl]-3-oxo-propyl]imidazolidine-2,4-dione]: the IC50 in [6] was more than 100 nM; in experiment [2], more than 100 nM; in [5] it was 50 to 100 nM; in experiment [3], more than 100 nM; in experiment [7] it was 50 to 100 nM; in experiment [4] it was 50 to 100 nM. The IC50 in experiment [8] lay within 50 to 100 nM.

Take `COc1cc(N2CCN(C(=O)CCC3(C4CC4)NC(=O)NC3=O)CC2)ccc1F` (stereo not drawn) [Cpd 17, 5-cyclopropyl-5-[3-[4-(4-fluoro-3-methoxy-phenyl)piperazin-1-yl]-3-oxo-propyl]imidazolidine-2,4-dione]: the IC50 in experiment [6], in experiment [2], in [5], in experiment [3], in experiment [7] and in experiment [4] was more than 100 nM throughout. In addition, the IC50 in [8] (setting [11]) is more than 100 nM.

Take `COc1cc(N2CCN(C(=O)CCC3(C4CC4)NC(=O)NC3=O)CC2)cc(F)c1F` (stereo not drawn) [Cpd 18, 5-cyclopropyl-5-[3-[4-(3,4-difluoro-5-methoxy-phenyl)piperazin-1-yl]-3-oxo-propyl]imidazolidine-2,4-dione]: the IC50 is more than 100 nM in experiment [6]; more than 100 nM in [9]; 0.001 to 25 nM in [2]; more than 100 nM in experiment [5]; more than 100 nM in [3]; 50 to 100 nM in experiment [7]. The IC50 was more than 100 nM in experiment [10], 50 to 100 nM in [4] and more than 100 nM in experiment [8] (setting [11]).
